Experimental data taken from patent publication US11584775B2, “C4-modified oleanolic acid derivatives for inhibition of IL-17 and other uses” (REATA PHARMACEUTICALS, INC., priority 2015, dated 2023).

Columns and labels:
[1] = tested on: NRF2; test: AREc32 luciferase reporter assay; format: cell-based, human; conditions: EC2×: concentration required to increase GST ARE Luciferase reporter activity by 2-fold; AREc32 cells, 19 hours
Text: B. AREc32 Luciferase Reporter Assay
The AREc32 luciferase reporter assay allows for quantitative assessment of the endogenous activity of the Nrf2 transcription factor in cultured mammalian cells. AREc32 cells are derived from MCF-7 human breast carcinoma cells that were stably transfected with a reporter construct that contains the firefly luciferase gene located downstream of eight copies of the rat GSTA2 antioxidant response element (ARE) sequence (Wang et al., 2006; CXR Biosciences). Active NRF2 binds to the ARE sequences and increases expression of the firefly luciferase gene. To assess the NRF2-activating potential of the test compounds, AREc32 cells were plated in black 96-well plates at a density of 20,000 cells per well in triplicate in DMEM+10% FBS+0.8 mg/mL Geneticin and incubated at 37° C. with 5% CO2 in a humidified atmosphere. The next day, cells were treated with DMSO (vehicle) or test compound (concentration ranges of 0.4-200 nM or 2-1000 nM) for 19 hours. Luciferase activity was determined using the ONE-Glo Luciferase assay (Promega). The luminescence signal was measured on a BMG Pherastar microplate reader. The mean luminescence value from test compound-treated wells was normalized to that from DMSO-treated wells and was represented as fold-induction. Data were analyzed using GraphPad Prism version 6.00 for Windows, GraphPad Software, La Jolla Calif. USA. A non-linear regression curve with log (agonist) vs. response using a variable slope was used to fit the data. Where applicable, a maximum threshold value of 50-fold over DMSO was set. EC2× values were interpolated from the curve. EC2× corresponds to the concentration of test compound required to increase GST ARE Luciferase reporter activity by 2-fold.

[2] = tested on: IFNγ-induced Nitric Oxide production; test: Nitric oxide production assay in RAW 264.7 mouse macrophages; format: cell-based; conditions: RAW264.7, suppression of IFNγ-induced NO production normalized to cell viability (WST-1), RAW 264.7, 24 hours IFNγ
Procedure: A. Nitric Oxide Production Assay and Cell Viability
RAW 264.7 mouse macrophages were plated in 96-well plates at a density of 30,000 cells per well in triplicate in RPMI 1640+0.5% FBS and incubated at 37° C. with 5% CO2 in a humidified atmosphere. The next day, cells were pre-treated with DMSO (vehicle) or test compound (concentration ranges of 0.4-200 nM or 2-1000 nM) for 2 hours and then treated with recombinant mouse IFNγ (R&D Systems) for 24 hours. Nitric oxide concentration in media was determined using the Griess reagent system (Promega). Cell viability was determined using WST-1 reagent (Roche). Values from test compound samples were normalized to those from DMSO/IFNγ-treated samples. IC50 values were determined based on the suppression of IFNγ-induced Nitric Oxide production normalized to cell viability.

[3] = molecular target: T1, human RORγ (Homo sapiens, UniProt P51449); test: RORγ assay (GAL4-RORγ hybrid luciferase reporter, inverse-agonist activity); format: cell-based; conditions: GAL4-RORγ hybrid reporter cells, 23 hours
T1 sequence (P51449 269-508 limits assumed): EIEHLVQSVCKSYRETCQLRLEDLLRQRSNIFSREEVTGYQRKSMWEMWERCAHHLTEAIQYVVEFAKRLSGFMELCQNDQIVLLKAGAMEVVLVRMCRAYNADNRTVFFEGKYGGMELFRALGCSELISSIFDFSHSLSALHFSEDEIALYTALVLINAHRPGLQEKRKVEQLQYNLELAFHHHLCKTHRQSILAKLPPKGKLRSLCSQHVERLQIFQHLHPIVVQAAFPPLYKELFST
Text: C. RORγ Assay and Cell Viability
The RORγ assay system was purchased from Indigo Biosciences. This nuclear receptor assay utilizes a human cell line that has been engineered to express a hybrid form of the Human RAR-related Orphan Receptor Gamma (RORγ) at high levels. The N-terminal DNA binding domain (DBD) of the native RORγ receptor was substituted with the yeast GAL4-DBD to generate the GAL4-RORγ hybrid nuclear receptor. The reporter cell line is transfected with a plasmid that encodes the beetle luciferase gene under the control of the GAL4 upstream activating sequence (UAS). GAL4 binds to the UAS and increases transcription of downstream target genes. […] To assess the RORγ inverse-agonist activity of the test compounds, reporter cells were plated in white 96-well plates in triplicate and were treated with DMSO (vehicle) or test compound (concentration ranges of 0.4-200 nM or 2-1000 nM) at 37° C. with 5% CO2 in a humidified atmosphere for 23 hours. After this incubation, luciferin was added to the wells and luciferase activity was determined by measuring the luminescence signal using a BMG Pherastar microplate reader. Viability was determined using the Live Cell Multiplex Assay (Indigo Biosciences). Values from test compound samples were normalized to those from DMSO-treated samples. Data were analyzed using GraphPad Prism version 6.00 for Windows (GraphPad Software, La Jolla Calif. USA). A non-linear regression analysis with log (inhibitor) vs. normalized response using a variable slope was applied to fit the data and determine the IC50 values for inhibition of RORγ and cell viability.

[4] = tested on: hIL17; test: IL-17 release from differentiated primary human T-cells (IL-17A HTRF assay); format: cell-based; conditions: inhibition of IL-17A levels; primary human CD4+ T cells differentiated into Th17 cells, 46-hour incubation
Procedure: D. IL-17 Release from Differentiated Primary Human T-Cells and Cell Viability
Primary human cryopreserved CD4+ T Cells (Lonza, donor #0000402103) were plated in Lymphocyte Growth Medium-3 (LGM-3, Lonza) according to the manufacturer's recommendations, and allowed to recover for approximately 3 hours at 37° C. with 5% CO2 in a humidified atmosphere. After the recovery step, cells were collected by centrifugation and re-plated in 96-well plates at a density of ˜140,000 cells per well in LGM-3 medium that contained DMSO (vehicle) or test compound (2-500 nM or 4-1000 nM concentration range). Triplicate wells were plated for each test condition. DMSO (final concentration ≤0.1%) was used as the vehicle. Immediately after plating, CD4+ T cells were activated by adding Dynabeads Human T-Activator CD3/CD28 (Life Technologies; bead-to-cell ratio of 1:2.5) and differentiated into Th17 cells by adding a mixture of the following cytokines: transforming growth factor-β (TGF-β, 5 ng/mL), IL-6 (20 ng/mL), IL-23 (20 ng/mL), and […] (10 ng/mL). Undifferentiated control cells received only cytokine IL-2 (50 ng/mL). All human recombinant cytokines were purchased from R&D Systems. Following a 46-hour incubation at 37° C. with 5% CO2 in a humidified atmosphere, the plates were centrifuged for 3 minutes at 250×g, and half of the supernatant was transferred to a new plate to be used in the IL-17A assay (see below). Cell viability was assessed in the original plate using the CyQuant Direct Assay (Life Technologies). CyQuant values from test compound samples were normalized to those from DMSO-treated samples. The concentration of IL-17A in the supernatant was measured using the Homogeneous Time-Resolved Fluorescence (HTRF) assay (Cisbio Bioassays) according to the manufacturer's protocol. The assay was performed at room temperature in low volume, solid white 384-well plates (Greiner Bio-One). Samples and standards (serially-diluted human recombinant IL-17A (0 to 5,000 pg/mL concentration range; Cisbio Bioassays) were incubated with the anti-human IL-17A antibody conjugate for 16 hours and fluorescence was measured using a Pherastar FS microplate reader (BMG Labtech) in the HTRF mode (excitation at 337 nm and emission at 665 nm and 620 nm). IL-17A concentrations were assessed in duplicate aliquots of supernatant from each well resulting in a total of six readings per test condition. The 665 nm/620 nm signal ratio was calculated and the concentration of IL-17A in each sample was determined by interpolation from the standard curve. IL-17A values from test compound samples were normalized to those from DMSO-treated samples. Data were analyzed using GraphPad Prism version 6.00 for Windows (GraphPad Software, La Jolla Calif. USA). A non-linear regression analysis with log (inhibitor) vs. normalized response using a variable slope was applied to fit the data and determine the IC50 values for inhibition of IL-17A levels and cell viability.

IC50 [3] [nM]	IC50 [4] [nM]	SMILES	EC2x: concentration giving 2-fold induction of ARE luciferase reporter [1] [nM]	IC50 [2] [nM]
1350	336	CC1(C)CC[C@@]23CC[C@@]4(C)[C@]5(C)CC[C@H]6[C@](C)(C(N)=O)C(=O)C(C#N)=C[C@]6(C)C5=CC(=O)[C@]4(OC2=O)[C@@H]3C1 [Compound T37, (4S,4aR,6aR,6bS,8aS,12aR,12bS,14bS)-2-cyano-4,6a,6b, 11,11,14b-hexamethyl-3,13,16-trioxo-4,4a,5,6,6a,6b,7,8,10,11,12,12a,13,14b-tetradecahydro-3H,9H-12b,8a-(epoxymethano)picene-4-carboxamide]	>1000	> 1000
206	65	COC(=O)[C@]12CCC(C)(C)C[C@H]1[C@H]1C(=O)C=C3[C@@]4(C)C=C(C#N)C(=O)[C@@](C)(C(N)=O)[C@@H]4CC[C@@]3(C)[C@]1(C)CC2 [Compound T15, methyl (4aS,6aR,6bS,8aR,9S,12aS,14aR,14bS)-9-carbamoyl-11-cyano-2,2,6a,6b,9,12a-hexamethyl-10,14-dioxo-1,3,4,5,6,6a,6b,7,8,8a,9,10,12a,14,14a,14b-hexadecahydropicene-4a(2H)-carboxylate]	612	714
268	46	COC(=O)[C@]1(C)C(=O)C(C#N)=C[C@]2(C)C3=CC(=O)[C@]45OC(=O)[C@@]6(CCC(C)(C)C[C@H]64)CC[C@@]5(C)[C@]3(C)CC[C@@H]12 [Compound T34, methyl (4S,4aR,6aR,6bS,8aS,12aR,12bS,14bS)-2-cyano-4,6a,6b, 11,11,14b-hexamethyl-3,13,16-trioxo-4,4a,5,6,6a,6b,7,8,10,11,12,12a,13,14b-tetradecahydro-3H,9H-12b,8a-(epoxymethano)picene-4-carboxylate]	377	383
	67	CCNC(=O)[C@]12CCC(C)(C)C[C@H]1[C@H]1C(=O)C=C3[C@@]4(C)C=C(C#N)C(=O)[C@@](C)(CO)[C@@H]4CC[C@@]3(C)[C@]1(C)CC2 [Compound T25, (4aS,6aR,6bS,8aR,9R,12aS,14aR,14bS)-11-cyano-N-ethyl-9-(hydroxymethyl)-2,2,6a,6b,9,12a-hexamethyl-10,14-dioxo-1,3,4,5,6,6a,6b,7,8,8a,9,10,12a,14,14a,14b-hexadecahydropicene-4a(2H)-carboxamide]	131	16
177	38	C[C@@H]1C(=O)C(C#N)=C[C@]2(C)C3=CC(=O)[C@@H]4[C@@H]5CC(C)(C)CC[C@]5(NC(=O)C(C)(F)F)CC[C@@]4(C)[C@]3(C)CC[C@@H]12 [Comparison Compound #4, reference compound]	11	0.6
389	101	Cc1nnc([C@]23CCC(C)(C)C[C@H]2[C@H]2C(=O)C=C4[C@@]5(C)C=C(C#N)C(=O)[C@@](C)(CO)[C@@H]5CC[C@@]4(C)[C@]2(C)CC3)o1 [Compound T42, (4R,4aR,6aS,6bR,8aS,12aS,12bR,14bS)-4-(hydroxymethyl)-4,6a,6b, 11,11,14b-hexamethyl-8a-(5-methyl-1,3,4-oxadiazol-2-yl)-3,13-dioxo-3,4,4a,5,6,6a,6b,7,8,8a,9,10,11,12,12a,12b,13,14b-octadecahydropicene-2-carbonitrile]	97	10.4
419	81	COC(=O)[C@]12CCC(C)(C)C[C@H]1[C@H]1C(=O)C=C3[C@@]4(C)C=C(C#N)C(=O)[C@@](C)(NC(C)=O)[C@@H]4CC[C@@]3(C)[C@]1(C)CC2 [Compound T12, methyl (4aS,6aR,6bS,8aR,9S,12aS,14aR,14bS)-9-acetamido-11-cyano-2,2,6a,6b,9,12a-hexamethyl-10,14-dioxo-1,3,4,5,6,6a,6b,7,8,8a,9,10,12a,14,14a,14b-hexadecahydropicene-4a(2H)-carboxylate]	>1000	> 1000
	126	CN(C)C(=O)[C@]1(C)C(=O)C(C#N)=C[C@]2(C)C3=CC(=O)[C@]45OC(=O)[C@@]6(CCC(C)(C)C[C@H]64)CC[C@@]5(C)[C@]3(C)CC[C@@H]12 [Compound T36, (4S,4aR,6aR,6bS,8aS,12aR,12bS,14bS)-2-cyano-N,N,4,6a,6b, 11,11,14b-octamethyl-3,13,16-trioxo-4,4a,5,6,6a,6b,7,8,10,11,12,12a,13,14b-tetradecahydro-3H,9H-12b,8a-(epoxymethano)picene-4-carboxamide]	>1000	> 1000
